This assay relates to P388 leukemia ip, CD2F1 mice, survival T/C. Put plainly: NCI In Vivo Anticancer Drug Screen. Data for tumor model P388 Leukemia (intraperitoneal) in CD2F1 (CDF1) mice. To be noted: endpoint: median survival time, higher = longer survival. The essentials:
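Mice carrying the transplanted tumor received test compound or vehicle. Survival was recorded in each group, and the value is the treated-group measurement divided by that of the vehicle-treated control group.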

Setting [1] is: dose: 60.0 mg/kg/injection, schedule: Q01DX005 (ip), vehicle: Klucel (hydroxypropylcellulose) (HPC).
The mark [2] stands for this setting: dose: 120.0 mg/kg/injection, schedule: Q01DX005 (ip), vehicle: Klucel (hydroxypropylcellulose) (HPC).
Where [3] appears, read: dose: 240.0 mg/kg/injection, schedule: Q01DX005 (ip), vehicle: Klucel (hydroxypropylcellulose) (HPC).
[4] abbreviates: dose: 50.0 mg/kg/injection, schedule: Q01DX009 (ip), vehicle: saline with Tween-80.
The mark [5] stands for this setting: dose: 100.0 mg/kg/injection, schedule: Q01DX009 (ip), vehicle: saline with Tween-80.
Where [6] appears, read: dose: 50.0 mg/kg/injection, schedule: Q01DX009 (ip), vehicle: saline.
The mark [7] stands for this setting: dose: 100.0 mg/kg/injection, schedule: Q01DX009 (ip), vehicle: saline.
[8] abbreviates: dose: 200.0 mg/kg/injection, schedule: Q01DX009 (ip), vehicle: saline.

We go through 23 molecules from PubChem BioAssay AID330 (DTP/NCI, 2004).

Each structure is given as a SMILES string. Where “and” joins values, the source holds several entries; their conditions need not be identical. Equal entries are not always repeated. Toxic doses and inconclusive results are not listed.

In the case of `CC(C)(C)OC(=O)N1CCCC1C(=O)N1CCCC1C(=O)Oc1ccccc1` (stereo not given), the T/C is 100 % of control (dose: 50.0 mg/kg/injection, schedule: Q01DX005 (ip), vehicle: saline); 100 % of control (dose: 100.0 mg/kg/injection, schedule: Q01DX005 (ip), vehicle: saline); 100 % of control (dose: 200.0 mg/kg/injection, schedule: Q01DX005 (ip), vehicle: saline).

Turning to `O=C1OCC/C1=C\NCCCCCCCCN/C=C1\CCOC1=O`, the T/C runs as follows: under setting [1], 97 % of control; under setting [2], 102 % of control; under setting [3], 105 % of control.

As for `CN1C2CCC(=O)C1CC2` (stereo not given), the T/C runs as follows: (dose: 6.25 mg/kg/injection, schedule: Q01DX005 (ip), vehicle: saline + Tween-80 + alcohol) 100 % of control; (dose: 12.5 mg/kg/injection, schedule: Q01DX005 (ip), vehicle: saline + Tween-80 + alcohol) 100 % of control; (dose: 25.0 mg/kg/injection, schedule: Q01DX005 (ip), vehicle: saline + Tween-80 + alcohol) 99 % of control.

Regarding `C=CCOc1ccccc1/C(Cl)=N/Nc1ccc([N+](=O)[O-])cc1[N+](=O)[O-]`, the T/C is 97 % of control (dose: 100.0 mg/kg/injection, schedule: Q04DX003 (ip), vehicle: saline with Tween-80); 94 % of control (dose: 200.0 mg/kg/injection, schedule: Q04DX003 (ip), vehicle: saline with Tween-80); 89 % of control (dose: 400.0 mg/kg/injection, schedule: Q04DX003 (ip), vehicle: saline with Tween-80).

With `O=C1OCCSCCOCCSCCOC(=O)c2cccc1n2`, the T/C (dose: 100.0 mg/kg/injection, schedule: Q01DX001 (ip), vehicle: Klucel (hydroxypropylcellulose) (HPC)) was 96 % of control; the T/C (dose: 200.0 mg/kg/injection, schedule: Q01DX001 (ip), vehicle: Klucel (hydroxypropylcellulose) (HPC)) is 93 % of control; the T/C (dose: 400.0 mg/kg/injection, schedule: Q01DX001 (ip), vehicle: Klucel (hydroxypropylcellulose) (HPC)) was 102 % of control.

For `CCc1nc(N)nc(N)c1-c1ccc2nn(-c3ccccc3)[n+]([O-])c2c1`, the T/C by setting is: (dose: 50.0 mg/kg/injection, schedule: Q01DX005 (ip), vehicle: Klucel (hydroxypropylcellulose) (HPC)) 108 % of control; (dose: 200.0 mg/kg/injection, schedule: Q01DX005 (ip), vehicle: Klucel (hydroxypropylcellulose) (HPC)) 87 % of control.

On to `O=C(O)CCc1nc(-c2ccccc2)nc2c1CCc1ccccc1-2`, for which the T/C is 92 % of control (dose: 100.0 mg/kg/injection, schedule: Q04DX002 (ip), vehicle: Klucel (hydroxypropylcellulose) (HPC)); 97 % of control (dose: 200.0 mg/kg/injection, schedule: Q04DX002 (ip), vehicle: Klucel (hydroxypropylcellulose) (HPC)); 98 % of control (dose: 400.0 mg/kg/injection, schedule: Q04DX002 (ip), vehicle: Klucel (hydroxypropylcellulose) (HPC)).

Turning to `CN(C)C1CCc2[nH]c3c(F)cc(F)cc3c2C1` (stereo not given), under setting [4], the T/C was 102 % of control.

For `CCCSc1ccc([N+](=O)[O-])cc1`, the T/C is, setting by setting: (dose: 25.0 mg/kg/injection, schedule: Q04DX002 (ip), vehicle: saline with Tween-80) 103 % of control; (dose: 50.0 mg/kg/injection, schedule: Q04DX002 (ip), vehicle: saline with Tween-80) 104 % of control; (dose: 100.0 mg/kg/injection, schedule: Q04DX002 (ip), vehicle: saline with Tween-80) 106 % of control.

Consider `Clc1ccc(-c2cc(-c3cc(-c4ccc(Cl)c(Cl)c4)n[nH]3)[nH]n2)cc1Cl`, for which the T/C under setting [1] is 97 % of control, the T/C under setting [2] was 86 % of control and the T/C under setting [3] was 96 % of control.

On to `COC(=O)c1ccc(C)[n+](C2OC(COC(=O)c3ccccc3)C(OC(=O)c3ccccc3)C2OC(=O)c2ccccc2)c1` (stereo not given), for which the T/C is 100 % of control (dose: 50.0 mg/kg/injection, schedule: Q01DX005 (ip), vehicle: saline + Tween-80 + alcohol); 100 % of control (dose: 100.0 mg/kg/injection, schedule: Q01DX005 (ip), vehicle: saline + Tween-80 + alcohol); 98 % of control (dose: 200.0 mg/kg/injection, schedule: Q01DX005 (ip), vehicle: saline + Tween-80 + alcohol).

Take `CNC(=O)Oc1ccc2c(c1)[C@]1(C)CCN(C)O[C@@H]1N2C`: the T/C by setting is: (dose: 0.79 mg/kg/injection, schedule: Q01DX005 (ip), vehicle: Klucel (hydroxypropylcellulose) (HPC)) 100 % of control; (dose: 1.56 mg/kg/injection, schedule: Q01DX005 (ip), vehicle: Klucel (hydroxypropylcellulose) (HPC)) 100 % of control.

For the molecule `CCCCN1C(=O)C2C3C=CC(C2C1=O)C1C2C(=O)N(CCCC)C(=O)C2C31` (stereo not given), the T/C by setting is: (dose: 100.0 mg/kg/injection, schedule: Q01DX001 (ip), vehicle: saline with Tween-80) 93 % of control; (dose: 200.0 mg/kg/injection, schedule: Q01DX001 (ip), vehicle: saline with Tween-80) 93 % of control; (dose: 400.0 mg/kg/injection, schedule: Q01DX001 (ip), vehicle: saline with Tween-80) 90 % of control.

For the molecule `Nc1ccccc1.O=C([CH-]C(=O)C(F)(F)F)c1ccccc1.O=C([CH-]C(=O)C(F)(F)F)c1ccccc1.O=C([CH-]C(=O)C(F)(F)F)c1ccccc1.O=C([CH-]C(=O)C(F)(F)F)c1ccccc1.[Eu+3]`, the T/C reads like this: (dose: 100.0 mg/kg/injection, schedule: Q01DX009 (ip), vehicle: Klucel (hydroxypropylcellulose) (HPC)) 100 % of control; (dose: 200.0 mg/kg/injection, schedule: Q01DX009 (ip), vehicle: Klucel (hydroxypropylcellulose) (HPC)) 103 % of control.

On to `COC1OC(CO)C(O)C(O)C1NC(C)=O` (stereo not given), for which the T/C by setting is: (dose: 50.0 mg/kg/injection, schedule: Q01DX005 (ip), vehicle: saline with Tween-80) 99 % of control; (dose: 100.0 mg/kg/injection, schedule: Q01DX005 (ip), vehicle: saline with Tween-80) 100 % of control; (dose: 200.0 mg/kg/injection, schedule: Q01DX005 (ip), vehicle: saline with Tween-80) 104 % of control.

`CC(C(=O)S)C(O)(c1ccccc1)c1ccccc1` (stereo not given): the T/C by setting is: (dose: 25.0 mg/kg/injection, schedule: Q04DX003 (ip), vehicle: Klucel (hydroxypropylcellulose) (HPC)) 98 % of control; (dose: 50.0 mg/kg/injection, schedule: Q04DX003 (ip), vehicle: Klucel (hydroxypropylcellulose) (HPC)) 101 % of control; (dose: 100.0 mg/kg/injection, schedule: Q04DX003 (ip), vehicle: Klucel (hydroxypropylcellulose) (HPC)) 107 % of control and 93 % of control.

Turning to `CC1(C)CC2C3=CCC4C5(C)CCC(O)C(C)(C)C5CCC4(C)C3(C)CC(O)C2(CO)C(O)C1O` (stereo not given), the T/C by setting is: (dose: 3.5 mg/kg/injection, schedule: Q01DX005 (ip), vehicle: Klucel (hydroxypropylcellulose) (HPC)) 99 % of control; (dose: 7.0 mg/kg/injection, schedule: Q01DX005 (ip), vehicle: Klucel (hydroxypropylcellulose) (HPC)) 99 % of control; (dose: 14.0 mg/kg/injection, schedule: Q01DX005 (ip), vehicle: Klucel (hydroxypropylcellulose) (HPC)) 95 % of control; (dose: 28.0 mg/kg/injection, schedule: Q01DX005 (ip), vehicle: Klucel (hydroxypropylcellulose) (HPC)) 96 % of control.

On to `NC1=C(O)C(=O)C(c2c3ccccc3cc3ccccc23)O1` (stereo not given), for which the T/C runs as follows: under setting [1], 94 % of control; under setting [2], 108 % of control; under setting [3], 86 % of control.

For `O=C1[C@H]2CCC[C@H]2[C@H]2CCC[C@@H]12`, the T/C by setting is: (dose: 25.0 mg/kg/injection, schedule: Q01DX009 (ip), vehicle: saline with Tween-80) 112 % of control; under setting [5], 119 % of control; (dose: 200.0 mg/kg/injection, schedule: Q01DX009 (ip), vehicle: saline with Tween-80) 105 % of control.

As for `O=S(=O)(OC1CCC2CCC1O2)c1ccc(Br)cc1` (stereo not given), the T/C is 86 % of control under setting [6], 100 % of control under setting [7] and 100 % of control under setting [8].

For `Clc1ccc(/C=C/c2ccnnc2)cc1`, the T/C is 106 % of control under setting [6], 106 % of control under setting [7] and 91 % of control under setting [8].

`C[C@]12CC[C@H]3[C@@H](CC[C@]4(O)C[C@@H](O)CC[C@]34CO)[C@@]1(O)CC[C@@H]2C1=CC(=O)OC1`: the T/C is 97 % of control (dose: 25.0 mg/kg/injection, schedule: Q04DX003 (ip), vehicle: suspension in saline); 98 % of control (dose: 50.0 mg/kg/injection, schedule: Q04DX003 (ip), vehicle: suspension in saline); 97 % of control (dose: 100.0 mg/kg/injection, schedule: Q04DX003 (ip), vehicle: suspension in saline); 100 % of control (dose: 200.0 mg/kg/injection, schedule: Q04DX003 (ip), vehicle: suspension in saline).

As to `Cc1c(Cl)cccc1NC(=O)c1cccc([N+](=O)[O-])c1O`, the T/C runs as follows: under setting [4], 102 % of control; under setting [5], 93 % of control.
